Measurements: PMC9537541, “Synthesis and anticancer activity of new benzensulfonamides incorporating s-triazines as cyclic linkers for inhibition of carbonic anhydrase IX” (Scientific Reports, 2022)
Entries after “also recorded” stand apart in the source; their conditions may differ.

Experiments:
hCA II = target: T1, hCA II (Homo sapiens, UniProt P00918); assay: stopped-flow CO2 hydrase assay, hCA II; type: biochemical; details: stopped flow technique, mean from 3 different assays
T1 construct: made in house
Description: (§1) Target compounds of series (A) and (B) were screened as inhibitors concerning the physiologically relevant hCAs; cytosolic isoforms (hCA I and II) in addition to the transmembrane tumor related isoforms (hCA IX and XII) via a stopped-flow assay of carbonic anhydrase catalyzed CO2 hydration. Acetazolamide (AAZ), CA I drug, was also incorporated in the assays as a standard drug. […] Four CA isoforms inhibition activity was measured by assaying CA catalyzed CO2 hydration via an applied photophysics stopped-flow instrument. PRISM 3 and the Cheng-prusoff equation were used to determine the inhibition constant by non-linear least square methods as reported, and represent the mean from three different determination at least. All tested carbonic anhydrase isoforms were recombinant proteins prepared in lab as described earlier,[57].

[1] = system: Breast cancer (MDA-MB-468); assay: anti-proliferative activity under hypoxic condition (MTT), MDA-MB-468; type: cell-based; details: for IC50: Homo sapiens, MDA-MB-468, hypoxic conditions (1%O2, 5% CO2 and 94% N2), mean ± S.D. of three experiments; for GI% Hypoxia MDA-MB-468: hypoxic condition (1% O2, 5% CO2, and 94%N2 at 37 °C)
Description: (§2) All cells were incubated in hypoxic atmosphere (1% O2, 5% CO2, and 94%N2) and maintained at 37 °C. All procedures to determine compounds cytotoxicity were accomplished using MTT assay as reported,[59],[60].

leukemia (CCRF-CM) = assay: anti-proliferative activity under hypoxic condition (MTT), CCRF-CM; type: cell-based; details: for GI% Hypoxia CCRF-CM: hypoxic condition (1% O2, 5% CO2, and 94%N2 at 37 °C); for IC50: hypoxic conditions (1%O2, 5% CO2 and 94% N2), mean ± S.D. of three experiments
Description: as §2

Leukemia (CCRF-CEM) = assay: NCI single dose SRB screen, CCRF-CEM; type: cell-based; details: normoxic condition (5% CO2, 95% air at 37 °C), NCI protocol
Description: (§3) Target compounds in series (A) and (B), were submitted to the National Cancer Institute (NCI) Developmental Therapeutic Program (www.dtp.nci.nih.gov), where they have been assessed, in vitro for their anticancer activity. Two series (A) and (B), were screened in a single dose (10 µM) versus full panel composed of 60 cancer cell lines, in accordance with protocol of drug evaluation branch, NCI, Bethesda. Sulforhodamine B (SRB) colorimetric assay was used to determine cell growth and viability,[40].
(§4) Protocol of Drug Evaluation Branch, NCI, Bethesda, was adopted in the antitumor assay. Assessment of cell growth and viability was carried out utilizing SRB assay and 48 h drug exposure protocol as previously reported,[40].

hCA XII = target: T2, hCA XII (Homo sapiens, UniProt O43570); assay: stopped-flow CO2 hydrase assay, hCA XII; type: biochemical; details: for Selectivity index (SI) I/XII: hCA XII over off-target hCA I; for Selectivity index (SI) II/XII: hCA XII over off-target hCA II; for Ki: stopped flow technique, mean from 3 different assays
T2 construct: made in house
T2 sequence (O43570 25-354): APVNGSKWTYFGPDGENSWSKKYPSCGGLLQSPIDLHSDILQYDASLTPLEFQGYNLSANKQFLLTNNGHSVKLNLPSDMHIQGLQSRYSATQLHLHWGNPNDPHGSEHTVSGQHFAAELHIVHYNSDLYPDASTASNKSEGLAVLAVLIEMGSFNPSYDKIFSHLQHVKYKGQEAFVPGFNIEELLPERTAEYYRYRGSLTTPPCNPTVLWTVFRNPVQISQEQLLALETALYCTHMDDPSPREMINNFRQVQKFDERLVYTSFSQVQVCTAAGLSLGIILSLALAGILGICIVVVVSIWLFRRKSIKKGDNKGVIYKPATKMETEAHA
Description: as §1

leukemia (RPMI-8226) = assay: NCI single dose SRB screen, RPMI-8226; type: cell-based; details: 10 µM single dose
Description: as §3, §4

hCA IX = target: T3, hCA IX (Homo sapiens, UniProt Q16790); assay: stopped-flow CO2 hydrase assay, hCA IX; type: biochemical; details: for Selectivity index (SI) I/IX: hCA IX over off-target hCA I; for Selectivity index (SI) II/IX: hCA IX over off-target hCA II; for Ki: stopped flow technique, mean from 3 different assays
T3 construct: made in house
Description: as §1

hCA I = target: T4, hCA I (Homo sapiens, UniProt P00915); assay: stopped-flow CO2 hydrase assay, hCA I; type: biochemical; details: stopped flow technique, mean from 3 different assays
T4 construct: made in house
T4 sequence (P00915 whole entry): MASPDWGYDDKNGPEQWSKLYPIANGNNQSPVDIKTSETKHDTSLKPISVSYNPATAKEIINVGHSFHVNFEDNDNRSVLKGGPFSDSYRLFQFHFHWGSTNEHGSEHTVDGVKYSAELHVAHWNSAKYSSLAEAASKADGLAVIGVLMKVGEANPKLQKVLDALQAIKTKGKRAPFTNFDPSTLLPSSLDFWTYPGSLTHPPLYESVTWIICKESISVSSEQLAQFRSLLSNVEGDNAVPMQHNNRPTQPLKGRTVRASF
Description: as §1

[2] = system: Breast cancer (MDA-MB-468); assay: NCI single dose SRB screen, MDA-MB-468; type: cell-based; details: for inhibition at 10 µM: Homo sapiens, MDA-MB-468, 48 h, 10^−5 M single dose, 48 h, SRB, read-out: GI% Breast cancer (MDA-MB-468); for GI% Normoxia MDA-MB-468: normoxic condition (5% CO2, 95% air at 37 °C), NCI protocol
Description: as §3, §4

caspase 9 = assay: Western blot of caspase 9 in MDA-MB-468 cells; type: cell-based
Text: (§5) Caspases, cysteine-containing aspartic acid-specific proteases, afford essential factors in cell networks that control and regulate death of the cell. Caspase-3 is a vital executioner protease which is triggered by cascade of initiator caspases such as caspase-9 [49]. This study was further extended to explore the apoptosis mechanism of compound 12d upon breast cancer, MDA-MB-468, cells by measuring the expression of apoptosis biomarkers (cleaved caspase 3 and caspase 9) via Gel electrophoresis and immune-blot analysis of proteins (Western Blot) using β-actin to normalize the loading. […] Accordingly, compound 12d have the ability to induce apoptosis in MDA-MB-468 cancer cells probably by pathways involving both caspase3 and caspase9.
(§6) MDA-MB-468 cells, were harvested on dishes of cell culture and treated for 24 h with compound 12d. An equal amount of protein transferred to PVDF membranes after separated by SDS-PAGE (5–15%). Skim milk with concentration 5% was used to block the blotted membranes for 1 h before being incubated with the desired primary antibodies at 37 °C for 1 h. Colorimetric technique was used to visualize immune reactive bands using Geldoc-it, UVP, England. To quantify equal loading, membrane was reseeded with β-actin antibody.
(§7) Eelectrophoresed proteins on SDS-PAGE were transferred to a Hybond™ nylon membrane (GE Healthcare) via TE62 Standard transfer tank with Cooling Chamber (Hoefer Inc. and incubate for 1 hour at room temperature in Blocking Solution. Additionally, β-actin (abcam, ab8227) was applied as housekeeping protein.
(§8) - Membrane was incubated the overnight at 4°C in antibody solution containing caspase isoform (Cell Signalling) separately for each antibody.
(§9) - Colorimetric technique was used to visualize immune reactive bands using Geldoc-it, UVP, England. Each experiment was run in triplicate.

Leukemia (SR) = assay: NCI single dose SRB screen, SR; type: cell-based; details: 48 h, 10^−5 M single dose, read-out: GI% Leukemia (SR)
Description: as §3, §4

breast cancer (T-47D) = assay: NCI single dose SRB screen, T-47D; type: cell-based; details: 10 µM single dose
Description: as §3, §4

[3] = system: MDA-MB-468 breast cancer cells; assay: cell cycle analysis by flow cytometry; type: cell-based; details: 24 h at IC50 concentration (3.99 µM)
Text: Cell cycle is composed of four distinct phases: G1, S, G2, and M[45]. Flow cytometry analysis of DNA ploidy in MDA-MB-468 breast cancer cells was used to evaluate the influence of compound 12d on normal cell cycle progression. […] Apoptosis and DNA fragmentation are possible mechanisms for 12d-induced cancer cell death based on the observed high increase in a pre-G1 cell population by 20 fold compared to the control.
The treated cells were centrifuged and maintained in ice-cold ethanol (70%) before being washed again with PBS and then re-suspended in RNase ([…]) followed by staining with 40 µg/mL PI, and analyzed by flow cytometry technique using a FACS Calibur (Becton Dickinson,BD, USA). Cell cycle distribution were calculated via CellQuest software 5.1 (Becton Dickinson),[63].

[4] = system: MDA-MB-468 breast cancer cells; assay: Annexin V-FITC/propidium iodide apoptosis assay; type: cell-based
Description: Apoptosis of tumor cells is the principal therapeutic objective of antiproliferative agents. The apoptotic induction potential of 12d in MDA-MB-468 cells were assessed using the Annexin V/propidium iodide double staining assay,[48].
Cells apoptosis further analyzed by measuring phosphatidylserine externalization using V-FITC/PI apoptosis detection kit (BD Biosciences, USA) according manufacturer's instructions, as reported,[62].

caspase 3 = assay: Western blot of caspase 3 in MDA-MB-468 cells; type: cell-based
Text: as §5, §6, §7, §8, §9

[5] = system: normal human embryonic kidney cells (HEK-293); assay: normal cell line cytotoxicity (MTT), HEK-293; type: cell-based
Description: All data was collected in triplicate, and IC50 values were calculated as the average of three separate trials.

Renal cancer (UO-31) = assay: NCI single dose SRB screen, UO-31; type: cell-based; details: Homo sapiens, UO-31, 48 h, 10^−5 M single dose, read-out: GI% Renal cancer (UO-31)
Description: as §3, §4

CNS cancer (SNB-75) = assay: NCI single dose SRB screen, SNB-75; type: cell-based; details: Homo sapiens, SNB-75, 48 h, 10^−5 M single dose, read-out: GI% CNS cancer (SNB-75)
Description: as §3, §4

[6] = system: non-small cell lung cancer (HOP-92); assay: NCI single dose SRB screen, HOP-92; type: cell-based; details: 10 µM single dose
Description: as §3, §4

[7] = Western blot, β-actin normalised

SMILES	Ki (hCA II) [nM]	IC50 [1] [nM]	IC50 (leukemia (CCRF-CM)) [nM]	Selectivity index (SI) I/XII (hCA XII)	Selectivity index (SI) II/XII (hCA XII)	Ki (hCA XII) [nM]	Selectivity index (SI) I/IX (hCA IX)	Selectivity index (SI) II/IX (hCA IX)	Ki (hCA IX) [nM]	Ki (hCA I) [nM]	melting point [°C]	GI% Hypoxia MDA-MB-468 [1] [%]	GI% Hypoxia CCRF-CM (leukemia (CCRF-CM)) [%]	GI% Normoxia CCRF-CM (Leukemia (CCRF-CEM)) [%]	inhibition at 10 µM [2] [%]	GI% Normoxia MDA-MB-468 [2] [%]	inhibition at 10 µM (Leukemia (SR)) [%]	inhibition at 10 µM (Renal cancer (UO-31)) [%]	inhibition at 10 µM (CNS cancer (SNB-75)) [%]	further results
CN(C)c1ccc(/C=C(\C#N)c2nc(N)nc(Nc3ccc(S(N)(=O)=O)cc3)n2)cc1 [Compound 12d, 4-({4-Amino-6-[(1E)-1-cyano-2-[4-(dimethylamino)phenyl]eth-1-en-1-yl]-1,3,5-triazin-2-yl}amino)benzene-1-sulfonamide]	364	3990 ± 210	4510 ± 240	3	2	188	3	2	190	577		59.38	55.82	52.61	≥ 50	61.39	≥ 50			GI% leukemia (RPMI-8226) (leukemia (RPMI-8226)): ≥ 50%; cleaved caspase 9 expression relative to the control (caspase 9; [7]): increasing the level; also recorded: significant activation; Expression level of procaspase 9, Lane %, Mean ± SD (caspase 9; treated 24 h, three replicates, control 40.53 ± 0.008): 25.30 ± 0.004%; Expression level of cleaved caspase 9, Lane %, Mean ± SD, first line (caspase 9; treated, first of two band lines (35/37 KDa), control 6.75 ± 0.008): 6.04 ± 0.012%; Expression level of cleaved caspase 9, Lane %, Mean ± SD, second line (caspase 9; treated, second of two band lines (35/37 KDa), control 14.32 ± 0.004): 21.59 ± 0.004%; GI% breast cancer (T-47D) (breast cancer (T-47D)): ≥ 50%; cell cycle arrest phases [3]: G0-G1 and S phases; increase in pre-G1 cell population compared to the control [3]: 20 fold; total increase in apoptotic cells compared to the control ([4]; annexin V-FITC positive cells): about 20 fold; apoptotic cells in late apoptosis phase (UR) ([4]; annexin V-FITC/PI, control 0.11%): 17.66%; apoptotic cells in early stage (LR) ([4]; annexin V-FITC/PI, control 0.39%): 2.76%; cleaved caspase 3 expression relative to the control (caspase 3; [7]): increasing the level; also recorded: significant activation; Expression level of procaspase 3, Lane %, Mean ± SD (caspase 3; treated 24 h, three replicates, control 42.52 ± 0.013): 27.81 ± 0.008%; Expression level of cleaved caspase 3, Lane %, Mean ± SD, first line (caspase 3; treated, first of two band lines (17/19 KDa), control 4.91 ± 0.017): 6.88 ± 0.008%; Expression level of cleaved caspase 3, Lane %, Mean ± SD, second line (caspase 3; treated, second of two band lines (17/19 KDa), control 13.59 ± 0.0): 22.42 ± 0.0%; IC50 ([5]; Homo sapiens, HEK293, normal cells, mean ± SD of three independent experiments): 68100 ± 3720 nM; safety index relative to staurosporine ([5]; cancer versus normal cells): about twofold
Cc1ccc(/C=C(\C#N)c2nc(N)nc(Nc3ccc(S(N)(=O)=O)cc3)n2)cc1 [Compound 12g, 4-({4-Amino-6-[(1E)-1-cyano-2-(4-methylphenyl)eth-1-en-1-yl]-1,3,5-triazin-2-yl}amino)benzene-1-sulfonamide]	697			0.07	0.3	2310	0.8	3.6	195	159	204 to 206				11		≤ 10	11	15	
CN[C@@H]1C[C@H]2O[C@@](C)([C@@H]1OC)n1c3ccccc3c3c4c(c5c6ccccc6n2c5c31)C(=O)NC4 [Staurosporine, reference compound]			2170 ± 110																	

Continued, in another order:

Ki (hCA II) [nM]	IC50 [1] [nM]	IC50 (leukemia (CCRF-CM)) [nM]	Selectivity index (SI) I/XII (hCA XII)	Selectivity index (SI) II/XII (hCA XII)	Ki (hCA XII) [nM]	Selectivity index (SI) I/IX (hCA IX)	Selectivity index (SI) II/IX (hCA IX)	Ki (hCA IX) [nM]	Ki (hCA I) [nM]	melting point [°C]	SMILES	GI% Hypoxia MDA-MB-468 [1] [%]	GI% Hypoxia CCRF-CM (leukemia (CCRF-CM)) [%]	GI% Normoxia CCRF-CM (Leukemia (CCRF-CEM)) [%]	inhibition at 10 µM [2] [%]	GI% Normoxia MDA-MB-468 [2] [%]	inhibition at 10 µM (Leukemia (SR)) [%]	inhibition at 10 µM (Renal cancer (UO-31)) [%]	inhibition at 10 µM (CNS cancer (SNB-75)) [%]	further results
320			5.8	3.6	87.5	9.7	6.1	52.2	508	222 to 224	N#C/C(=C\c1cccc(Cl)c1)c1nc(N)nc(Nc2ccc(S(N)(=O)=O)cc2)n1 [Compound 12h, 4-({4-Amino-6-[(1E)-2-(3-chlorophenyl)-1-cyanoeth-1-en-1-yl]-1,3,5-triazin-2-yl}amino)benzene-1-sulfonamide]				11		27	≤ 10	≤ 10	
253	1480 ± 80	9830 ± 520			182				480		N#C/C(=C\c1cccc(F)c1)c1nc(N)nc(Nc2ccc(S(N)(=O)=O)cc2)n1 [Compound 12i, 4-({4-Amino-6-[(1E)-1-cyano-2-(3-fluorophenyl)eth-1-en-1-yl]-1,3,5-triazin-2-yl}amino)benzene-1-sulfonamide]	64.75	50.14	0.76	17	16.58	≤ 10	20	≤ 10	GI% non-small cell lung cancer (HOP-92) [6]: 16%
